Test results from patent US6391857B1, “Methods and compositions for endothelial binding” (Stanford University, priority 1990, dated 2002).

How the values were obtained:
antibody 1H10 = assay: Direct binding ELISA of antibody 1H10 to solid-phase neoglycoproteins; design: species or system mouse; details: 100 ng neoglycoprotein per well, antibody 10 μg/ml
Experimental: Synthetic glycoproteins were coated onto microtiter plates by filling each well with 100 ng of the neoglycoprotein in 100 μl of 0.15 M sodium chloride, 0.01 M sodium phosphate, 0.1% sodium azide, pH 7.4, (PBS-azide) overnight at 4° C. Standard enzyme-linked immunoassays (ELISA) were then performed on the solid phase carbohydrate structures using the appropriate antibody diluted to 10 μg/ml.

ELAM-1 = target: T1, ELAM-1 (Homo sapiens, UniProt P16581); assay: Cell binding assay: L1-2^ELAM-1 cells on glass slides coated with synthetic glycoconjugates; format: cell-based; details: 25 min RT, 50 rpm
T1 construct: expressed in transfected cells; host or cells: murine pre-B cell line L1-2, vector pMRB101 derivative (pMRB107), hCMV promoter
T1 sequence (P16581 22-610): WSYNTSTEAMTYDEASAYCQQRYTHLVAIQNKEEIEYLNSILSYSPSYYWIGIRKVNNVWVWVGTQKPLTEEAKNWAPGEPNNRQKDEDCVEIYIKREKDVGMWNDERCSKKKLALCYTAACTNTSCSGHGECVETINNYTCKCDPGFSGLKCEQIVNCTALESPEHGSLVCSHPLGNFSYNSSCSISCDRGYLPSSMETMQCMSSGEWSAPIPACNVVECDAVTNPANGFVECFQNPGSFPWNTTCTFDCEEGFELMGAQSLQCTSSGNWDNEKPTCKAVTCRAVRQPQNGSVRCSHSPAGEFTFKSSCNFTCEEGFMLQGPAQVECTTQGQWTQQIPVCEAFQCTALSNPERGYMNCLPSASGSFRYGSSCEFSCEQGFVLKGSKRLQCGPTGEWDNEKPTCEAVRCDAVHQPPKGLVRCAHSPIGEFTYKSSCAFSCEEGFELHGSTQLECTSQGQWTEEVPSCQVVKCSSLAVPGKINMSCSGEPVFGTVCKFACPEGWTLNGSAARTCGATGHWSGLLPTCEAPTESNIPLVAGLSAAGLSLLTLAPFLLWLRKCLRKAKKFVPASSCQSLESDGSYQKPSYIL
Experimental: L1-2/pMRB107 cells (L1-2^ELAM-1) were prepared by transfecting the ELAM-1 gene into the murine pre-B cell line L1-2 (Gallatin et al. (1983) Nature 35 304:30-34). A cDNA clone encoding ELAM-1 was obtained from a CDNA library made from activated human umbilical vein endothelial cell cultures by polymerase chain reaction amplification. The ELAM-1 gene was inserted downstream of the hCMV promoter in pMRB101 [a derivative of EE6 which contains the E. coli gpt gene (Mulligan and Berg (1981) Proc. Nat'l. Acad. Sci. USA 78:2072; Stephens and Corbett (1989) N.A.R. 17:7110)]. DNA was introduced into L1-2 cells by electroporation and the cells selected for resistance to mycophenolic acid. A population of cells staining brightly for ELAM-1 were selected by FACS and cloned by limiting dilution. These cells are ELAM-1^hi LFA-1^mod CD45^hi CD44^neg LECAM-1^neg, differing from the parent cell line or control vector transfectants only in their expression of ELAM-1. L1-2/pMRB101 (L1-2^vector) cells are a similarly transformed derivative of L1-2 transfected with pMRB101 and lacking ELAM-1 expression.
One hundred microliter samples of each synthetic glycoconjugate in phosphate buffered saline (PBS), pH 7.2, were absorbed onto glass wells of 8-chamber slides (LabTek) for two hours at RT. For some experiments glass slides were pre-coated with rabbit anti-human serum albumin (Sigma) at 200 μg/ml overnight at 4° C. and washed with PBS prior to the addition of the glycoconjugate. After blocking with 5% NBS/ 10 mM HEPES/Dulbecco's Modified Eagles Medium (DMEM), pH 7.0 (CM), L1-2^ELAM-1 or L1-2^vector cells were applied to each well (1.5×10^6/0.15 ml in CM). After a 25 minute incubation at RT on a rotating shaker at 50 rpm, the tops of the wells were removed and the slides washed 3× in DMEM and then fixed by incubation in 1.5% glutaral-dehyde (Kodak)/DMEM. Three to six 100× fields were counted for each data point and the average and standard error are reported. Data reported are from representative experiments which were performed 2-5 times with similar results.

mouse LECAM-1 = target: T2, mouse LECAM-1 (Mus musculus, UniProt P18337); assay: Cell binding assay: mouse lymphocytes on coated synthetic glycoconjugates; format: cell-based; details: mesenteric lymph node lymphocytes, 3×10^6 cells in 0.15 ml
T2 construct: Mouse lymphocytes isolated from mesenteric lymph nodes were also tested; endogenous in cells; host or cells: primary mouse lymphocytes from mesenteric lymph nodes
T2 sequence (P18337 39-372): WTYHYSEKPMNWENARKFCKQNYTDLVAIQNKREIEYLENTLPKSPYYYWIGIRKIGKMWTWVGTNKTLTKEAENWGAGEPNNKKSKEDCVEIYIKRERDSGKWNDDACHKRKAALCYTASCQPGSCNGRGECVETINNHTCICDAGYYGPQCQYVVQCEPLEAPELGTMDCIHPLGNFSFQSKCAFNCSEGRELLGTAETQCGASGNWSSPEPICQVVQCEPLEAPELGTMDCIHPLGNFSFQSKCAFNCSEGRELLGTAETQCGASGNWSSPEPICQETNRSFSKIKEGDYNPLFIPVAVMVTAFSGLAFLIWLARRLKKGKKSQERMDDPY
Experimental: Cell binding assays. One hundred microliter samples of each synthetic glycoconjugate in phosphate buffered saline (PBS), pH7.2, were absorbed onto glass wells of 8-chamber slides (LabTek) for two hours at RT. After blocking with 5% NBS, 10 mM HEPES, Dulbecco's Modified Eagles Medium (DMEM), pH7.0 (CM), L1-2^LECAM-1, L1-2^vector or L1-2^ELAM-1 cells were applied to each well (1.5×10^6 cells in 0.15 ml CM). Mouse lymphocytes isolated from mesenteric lymph nodes were also tested at 3×10^6 cells in 0.15 ml. In some cases, cells were preincubated with monoclonal antibody MEL-14 (Gallatin et al., 1983, supra) at 150 μg/ml/10^7 cells and washed prior to testing. After a 25 minute incubation at RT on a rotating shaker at 50 rpm, the tops of the wells were removed and the slides washed 3× in DMEM and then fixed by incubation in 1.5% glutaraldehyde (Kodak) in DMEM. Three to six 100× fields were counted for each data point and the average and standard error are reported. Data reported are from representative experiments which were performed 2-5 times with similar results.

Substance | direct binding of antibody 1H10 to neoglycoprotein (antibody 1H10) | binding of L1-2^ELAM-1 cells to coated glycoconjugate (ELAM-1) | binding of mouse lymphocytes to coated neoglycoconjugate (mouse LECAM-1)
Neu5Acα2-3Galβ1-3GlcNAcβ1-3Galβ1-4(Glc) [LSTa] | weakly crossreacts | did not bind | not
NeuNAc α2-3Gal βl-4 (Glc) [3′SL] | – | did not bind | not
Neu5Acα2-6Galβ1-4GlcNAcβ1-3Galβ1-4(Glc) [LSTc] | – | did not bind | –
NeuNAc α2-6Gal βl-4 (Glc) [6′SL] | – | did not bind | not
